# How the values were obtained:
# THP-1 = assay: Antigen-positive cells after RNA-LNP co-treatment in THP-1; format: cell-based; settings: THP-1, data not shown
# A/Wisconsin/588/2019 = assay: NHP immunogenicity, 1-Day influenza microneutralization assay (MNT); format: in vivo, Cyno macaques
# Experimental: The influenza virus microneutralization assay (MNT) quantitatively measures functional antibodies in serum that neutralize influenza virus activity, preventing productive infection of a host cell monolayer. A neutralization reaction occurs when influenza virus is incubated with serum samples; this reaction mixture is then applied to a monolayer of Madin-Darby Canine Kidney (MDCK) cells to measure the extent of neutralization. MNT titers are reported as the reciprocal of the dilution that results in 50% or 90% reduction in infection when compared to a no serum control. The 1-Day MNT measures anti-HA neutralizing antibodies.
# Hela cells [1] = system: Hela cells
# A549s = assay: Antigen-positive cells after RNA-LNP co-treatment in A549s; format: cell-based; settings: data not shown
# Hela cells [2] = format: cell-based, human; design: increase of the HA GMFI compared to transfecting with saRNA alone / increase of percentage of antigen-positive cells vs. saRNA with DMSO control / increase of HA antigen expression from modRNA and (un)modified saRNA: unit of the concentration uncertain
smiles,measurement,setting,value
"COc1cc2nc(N3CCN(c4nc(N)c5cc(OC)c(OC)cc5n4)CC3)nc(N)c2cc1OC [PF-01009329, 2,2′-(piperazine-1,4-diyl)bis(6,7-dimethoxyquinazolin-4-amine)]","enhancement of modRNA and bicistronic saRNA performance, percentage of antigen-positive cells",THP-1,≤ 25 fold
same,improved immunogenicity over modified saRNA alone,"A/Wisconsin/588/2019; 50% m1ψ modified saRNA-HA-NA, co-administered PF-06650833 3.125 μg or PF-01009329 0.14 μg, Day 42",8 fold
same,neutralizing antibody response compared to 50% m1ψ saRNA-HA-NA+PF-01009329,"A/Wisconsin/588/2019; saRNA-HA-NA incorporating 50% m1ψ and 100% m5C, 2 weeks post dose 2",comparable neutralizing antibody response
same,"immune response (neutralizing antibodies, MNT) compared to saRNA-HA-NA vaccination alone","A/Wisconsin/588/2019; unmodified saRNA-HA-NA 2.5 μg IM Days 0 and 28, co-administered PF-06650833 3.125 μg or PF-01009329 0.14 μg, Day 42",comparable immune response
same,neutralizing titers higher than the saRNA group,"A/Wisconsin/588/2019; unmodified saRNA-HA-NA, 2 out of 5 animals, Day 42",more than 8 fold
same,geometric mean titer higher than the saRNA-HA-NA alone,"A/Wisconsin/588/2019; unmodified saRNA-HA-NA, Day 42",less than 2 fold
same,cell viability,"Hela cells [1]; HeLa, concentration increased via admixture, FIG. 6",greater reduction in viability
same,compound-specific cell cytotoxicity,"Hela cells [1]; Hela, PF-01034118 15-1.8 mM, PF-01009329 1.8-0.22 mM, FIG. 3",not observed
same,"enhancement of modRNA and bicistronic saRNA performance, percentage of antigen-positive cells",A549s,≤ 16 fold
same,"enhancement of modRNA and bicistronic saRNA performance, percentage of antigen-positive cells","Hela cells [2]; HeLa, FIGS. 5 & 9",up to 11 fold
same,"relative HA expression, GMFI of HA immunostaining","Hela cells [2]; HeLa, LNP doses of 62 ng or higher, co-formulation and admixture, FIG. 8",elevated GMFI values
same,increase of HA antigen expression from modRNA and (un)modified saRNA,"Hela cells [2]; HeLa, compound at 1.8 (unit uncertain), rabbit polyclonal antibodies used to detect HA, FIG. 4",~ 6 fold
same,"HA and NA expression, as measured via GMFI","Hela cells [2]; HeLa, compound incorporated into LNPs, FIG. 6",trend towards higher overall GOI expression
same,percentage of cells expressing HA,"Hela cells [2]; HeLa, saRNA-LNPs co-formulated with the hydrate form, FIG. 8",dose dependent increases
same,increase of percentage of antigen-positive cells vs. saRNA with DMSO control,"Hela cells [2]; Hela, HA encoding saRNA, compound at 0.9 (unit uncertain)",28 fold
same,transfection efficiency (% HA or NA positive cells),"Hela cells [2]; […], exception co-formulated PF-07875246/ALC-0159 with 50% m1ψ, HA",increased transfection efficiency across all LNP compositions assayed
same,effect on HA antigen expression and saRNA transcription,"Hela cells [2]; at much lower concentration than that of PF-01034118, FIG. 3",potent effect
